# Numbered stars: 1 amine (or outer) side, 2 acyl side, 3 side chain; on linkers, the order of the positions; unused ones are H or OH. Bridge positions count the residues as written; N and C are the ends. Square brackets hold non-standard residues; d marks the D form. Peptide text beside a SMILES is read from it. I, II: the chains in the order shown. Actinocin(1to9) = Cc1c2oc3c(C)ccc(C(=O)[*:2])c3nc-2c(C(=O)[*:1])c(N)c1=O; NMeV = CN[C@H](C(=O)O)C(C)C; Sar = CNCC(=O)O
# Columns and labels:
# Staphylococcus aureus [1] = assay: Antimicrobial activity against Staphylococcus aureus Sau 16162 assessed as inhibition of bacterial growth incubated for 16 to 18 hrs by broth micro dilution technique; format: functional; settings: time 16-18 hrs
# Staphylococcus aureus [2] = assay: Antimicrobial activity against Staphylococcus aureus Sau 6917 assessed as inhibition of bacterial growth incubated for 16 to 18 hrs by broth micro dilution technique; format: functional; settings: time 16-18 hrs
# Staphylococcus aureus [3] = assay: Antimicrobial activity against Staphylococcus aureus Sau 1862 assessed as inhibition of bacterial growth incubated for 16 to 18 hrs by broth micro dilution technique; format: functional; settings: time 16-18 hrs
# Staphylococcus aureus [4] = assay: Antimicrobial activity against Staphylococcus aureus Sau 991 assessed as inhibition of bacterial growth incubated for 16 to 18 hrs by broth micro dilution technique; format: functional; settings: time 16-18 hrs
# Staphylococcus aureus [5] = assay: Antimicrobial activity against Staphylococcus aureus Sau 718306 assessed as inhibition of bacterial growth incubated for 16 to 18 hrs by broth micro dilution technique; format: functional; settings: time 16-18 hrs
# Staphylococcus aureus [6] = assay: Antimicrobial activity against Staphylococcus aureus Sau 745524 assessed as inhibition of bacterial growth incubated for 16 to 18 hrs by broth micro dilution technique; format: functional; settings: time 16-18 hrs
# Staphylococcus aureus [7] = assay: Antimicrobial activity against Staphylococcus aureus CCAM 3090 assessed as inhibition of bacterial growth incubated for 16 to 18 hrs by broth micro dilution technique; format: functional; settings: time 16-18 hrs
# Staphylococcus aureus [8] = assay: Antimicrobial activity against Staphylococcus aureus ATCC 29213 assessed as inhibition of bacterial growth incubated for 16 to 18 hrs by broth micro dilution technique; format: functional; settings: time 16-18 hrs
# Micrococcus luteus = assay: Antimicrobial activity against Micrococcus luteus ML01 assessed as inhibition of bacterial growth incubated for 16 to 18 hrs by broth micro dilution technique; format: functional; settings: time 16-18 hrs
# Enterococcus faecium = assay: Antimicrobial activity against Enterococcus faecium ATCC 35682 assessed as inhibition of bacterial growth incubated for 16 to 18 hrs by broth micro dilution technique; format: functional; settings: time 16-18 hrs
# Enterococcus faecalis = assay: Antimicrobial activity against Enterococcus faecalis ATCC 29212 assessed as inhibition of bacterial growth incubated for 16 to 18 hrs by broth micro dilution technique; format: functional; settings: time 16-18 hrs
# Bacillus thuringiensis = assay: Antimicrobial activity against Bacillus thuringiensis BT01 assessed as inhibition of bacterial growth incubated for 16 to 18 hrs by broth micro dilution technique; format: functional; settings: time 16-18 hrs
# Candida albicans = assay: Antimicrobial activity against Candida albicans assessed as inhibition of bacterial growth incubated for 16 to 18 hrs by broth micro dilution technique; format: functional; settings: time 16-18 hrs
# HepG2 = assay: Cytotoxicity against human HepG2 cells assessed as growth inhibition incubated for 68 hrs by MTT assay; format: functional, cell-based; settings: HepG2, 68 h
# HeLa = assay: Cytotoxicity against human HeLa cells assessed as growth inhibition incubated for 68 hrs by MTT assay; format: functional, cell-based
# HL-60 = assay: Cytotoxicity against human HL-60 cells assessed as growth inhibition incubated for 68 hrs by MTT assay; format: functional, cell-based; settings: HL-60, 68 h
# RKO = assay: Cytotoxicity against human RKO cells assessed as growth inhibition incubated for 68 hrs by MTT assay; format: functional, cell-based
# A549 = assay: Cytotoxicity against human A549 cells assessed as growth inhibition incubated for 68 hrs by MTT assay; format: functional, cell-based; settings: A549, 68 h
# MCF7 = assay: Cytotoxicity against human MCF7 cells assessed as growth inhibition incubated for 68 hrs by MTT assay; format: functional, cell-based; settings: MCF7, 68 h
# L02 = assay: Cytotoxicity against human L02 cells assessed as growth inhibition incubated for 68 hrs by MTT assay; format: cell-based; settings: L02, 68 h
# BEAS-2B = assay: Cytotoxicity against human BEAS-2B cells assessed as growth inhibition incubated for 68 hrs by MTT assay; format: cell-based
MIC (Staphylococcus aureus [1]),MIC (Staphylococcus aureus [2]),MIC (Staphylococcus aureus [3]),MIC (Staphylococcus aureus [4]),MIC (Staphylococcus aureus [5]),MIC (Staphylococcus aureus [6]),MIC (Staphylococcus aureus [7]),MIC (Staphylococcus aureus [8]),MIC (Micrococcus luteus),MIC (Enterococcus faecium),MIC (Enterococcus faecalis),MIC (Bacillus thuringiensis),MIC (Candida albicans),Compound,IC50 (HepG2),IC50 (HeLa),IC50 (HL-60),IC50 (RKO),IC50 (A549),IC50 (MCF7),IC50 (L02),further results
8 µg/mL,2 µg/mL,2 µg/mL,2 µg/mL,2 µg/mL,2 µg/mL,2 µg/mL,2 µg/mL,0.5 µg/mL,8 µg/mL,8 µg/mL,4 µg/mL,16 µg/mL,COc1c2oc3c(OC)ccc(C(=O)N[C@@H]4C(=O)N[C@H](C(C)C)C(=O)N5CCC[C@H]5C(=O)N(C)CC(=O)N(C)[C@@H](C(C)C)C(=O)O[C@@H]4C)c3nc-2c(C(=O)N[C@@H]2C(=O)N[C@H](C(C)C)C(=O)N3CCC[C@H]3C(=O)N(C)CC(=O)N(C)[C@@H](C(C)C)C(=O)O[C@@H]2C)c(N)c1=O,4 µM,4.3 µM,0.2 µM,1.7 µM,18.5 µM,4.1 µM,3.9 µM,IC50 (BEAS-2B): 2.7 µM
1 µg/mL,0.06 µg/mL,0.06 µg/mL,0.06 µg/mL,0.06 µg/mL,0.06 µg/mL,0.06 µg/mL,0.06 µg/mL,< 0.06 µg/mL,0.13 µg/mL,< 0.06 µg/mL,0.06 µg/mL,< 0.06 µg/mL,"Cc1c2oc3c(C)ccc(C(=O)N[C@@H]4C(=O)N[C@H](C(C)C)C(=O)N5CCC[C@H]5C(=O)N(C)CC(=O)N(C)[C@@H](C(C)C)C(=O)O[C@@H]4C)c3nc-2c(C(=O)N[C@@H]2C(=O)N[C@H](C(C)C)C(=O)N3CCC[C@H]3C(=O)N(C)CC(=O)N(C)[C@@H](C(C)C)C(=O)O[C@@H]2C)c(N)c1=O [DACTINOMYCIN] (I: T[dV]P[Sar][NMeV] / II: T[dV]P[Sar][NMeV]; ester I:1-I:C, II:1-II:C; linker I:N-II:N via Actinocin(1to9))",0.01 µM,0.12 µM,0.02 µM,0.03 µM,3.8 µM,0.2 µM,0.5 µM,IC50 (BEAS-2B): 0.7 µM
